Reference: US20230218577A1, “USE OF HEAT SHOCK PROTEIN INHIBITORS FOR THE TREATMENT OF NEURODEVELOPMENTAL DISORDERS” (The Children's Medical Center Corporation, priority 2020, published 2023)

Assays:
[1] = system: IGF-IRβ, pS6 in wild-type cortical neurons; assay: Proteasomal inhibition experiment, Western blot in wild-type cortical neurons; type: cell-based, rat; conditions: 4 μM 17-AGG alone, 24 hrs at DIV20
Description: Hippocampi and cortexes from 18-day-old rat embryos (Charles River CD1) were isolated under the microscope and collected in Hank's Balanced Salt Solution containing 10 mM MgCl2, 1 mM kynurenic acid, 10 mM HEPES and penicillin/streptomycin. After 5 min dissociation at 37° C. in 30 U/ml of papain, neurons were mechanically triturated and plated in Neurobasal (NB) medium containing B27 supplement, 2 mM L-glutamine, penicillin/streptomycin and primocin (NB/B27). Biochemical analysis was performed on cortical cultures plated at 1×10^6 cells/well onto six-well plates. Immunofluorescent analysis was performed on hippocampal cultures plated at 20×10^3 cells/well onto 96-well plates. All plates were coated with 20 μg/ml poly-D-lysine (PDL).
Stocks of drugs were freshly diluted in NB media before performing each experiment. The same amount of vehicle was used as vehicle-only control. For dose response curves serial dilutions were freshly made in NB media by a manual multichannel pipette using compound dilution plates.
Protein extracts were lysed in 1×SDS (22 mM Tris-HCl pH 6.8, 4% Glycerol, 0.8% SDS, 1.6% β-mercaptoethanol, bromphenol blue) sample buffer, heated to 95° C. for 5 min and stored frozen. Before being subjected to discontinuous gel electrophoresis, equal amounts of all protein lysates were verified by Coomassie gel staining. For immunoblotting, equal amounts of protein lysates were subjected to SDS-PAGE, transferred to Immobilon-P Millipore and incubated in LI-COR blocking solution at RT for 2 hrs. Primary and secondary antibodies were diluted in LI-COR blocking solution to the appropriate concentrations. LI-COR IRDye secondary antibodies were used. All images were acquired using the LI-COR Odyssey Classic imager and associated Image Studio Lite analysis software (version 5.2.5). Quantification of protein expression was performed by densitometry scans of immunoblots using LI-COR Odyssey imaging system.

[2] = system: pS6, IGF-IRβ in ctrl-sh neurons; assay: Western blot of pS6 and IGF-IRβ in ctrl-sh neurons; type: cell-based, rat; conditions: dose curve
[3] = system: ciliated neurons in CA1 of the hippocampus of Tsc2 mutant mice; assay: Ciliated neurons in brain of Tsc2 mutant mice (immunohistochemistry, manual cilia counting); type: in vivo, mouse; conditions: rapamycin 3 mg/kg i.p. every other day P7 until P56
Text: Neuronal cilia in TSC mouse models was examined with either a conditional deletion of TSC1 or TSC2 driven by the Synapsin-1 promoter, which results in loss of TSC1/2 proteins in post-mitotic neurons of the cortex and of the hippocampus. The TSC1/SynCre mice (Tsc1 mutant) have a shorter life span (median age postnatal day 35, P35), and they recapitulate many of the neurological manifestations of TSC, including seizures and presence of ectopic giant cells (Meikle et al., A mouse model of tuberous sclerosis: neuronal loss of Tsc1 causes dysplastic and ectopic neurons, reduced myelination, seizure activity, and limited survival; J Neurosci 27, 5546-5558 (2007)). […]
For histological analysis, animals were anesthetized (1 ml of 2.5% Avertin) and perfused transcardially with 4% PFA. […] Finally, the average percentage of neurons with cilia (NeuN^+/ACIII^+) was calculated in each of the images. […] The average percentage of SMI311^+ or SMI311^− with cilia was calculated. […] A threshold for cilia count was set such that only ACIII positive objects that measured longer than 1 μm were counted as cilia. All the imaging and the quantification were done in a blinded way. […] All quantifications were performed in a blinded fashion.

Row | Structure (SMILES) | IGF-IRβ levels [1] | IGF-IRβ levels [2] | S6 phosphorylation [2] | ciliation defects [3]
1 | C=CCNC1=C2C[C@@H](C)C[C@H](OC)[C@H](O)[C@@H](C)/C=C(\C)[C@H](OC(N)=O)[C@@H](OC)C=C/C=C(\C)C(=O)NC(=CC1=O)C2=O [17-AGG, 3 S,5S,6R,7S,8E,10R,11S,12E,14E)-21-(allylamino)-6-hydroxy-5,11-dimethoxy-3,7,9,15-tetramethyl-16,20,22-trioxo-17-azabicyclo[16.3.1]docosa-8,12,14,18,21-pentaen-10-yl] carbamate] | reduced | reduced | reduced | –
2 | CO[C@H]1C[C@@H]2CC[C@@H](C)[C@@](O)(O2)C(=O)C(=O)N2CCCC[C@H]2C(=O)O[C@H]([C@H](C)C[C@@H]2CC[C@@H](O)[C@H](OC)C2)CC(=O)[C@H](C)/C=C(\C)[C@@H](O)[C@@H](OC)C(=O)[C@H](C)C[C@H](C)/C=C/C=C/C=C/1C [rapamycin] | – | – | – | prevented
